Where a name gives a salt, the structure may show the parent alone.
Test system: influx of neutrophils to the lung in LPS-challenged rats
Assay: Rat LPS neutrophilia model
Format: in vivo
Conditions: intratracheal compound 15 min-24 hours before LPS aerosol (100 ug/ml, 15 min), lavage 4 hours later, in at least one of the range of conditions tested
Description: Rat LPS Neutrophilia Model
The effect of compounds on the influx of neutrophils to the lung in LPS-challenged rats is evaluated as follows. The test compound is suspended in one of the following solutions: 0.5% tween 80/PBS, 0.5% tween 80/saline, 10% EtOH/saline (with pH adjusted to 2.0, or 8.0 with HCl, or unadjusted), Saline @ pH 2.0, 6.5 or 8.0, 0.5% Tragacanth, 1% DMSO/20% Encapsin/Saline, or acidified 5% Tragacanth. The suspension process may be aided by the use of a glass homogenizer. For intratracheal administration, the animals are anesthetized with inhaled isoflurane and placed in a supine position, the trachea is intubated with a steel gavage needle (1.5 inch, 22 gauge, small ball) or a Penn-Century Microsprayer Aerosolizer (model IA-1B) and 200 ul of dosing solution is delivered. The animals are visually monitored during the recovery process, which typically occurs within two minutes.
Rats treated with compound or vehicle (15 min-24 hours pretreatment) are exposed to an LPS aerosol (100 ug/ml) for 15 min. Four hours later the rats are euthanized with pentobarbital (100 mg/kg, i.p.) and the airways are lavaged with 5 washes of 5 ml of phosphate buffered saline. The harvested cells are stained (Diffquick) and counted to determine total and differential cell data. In a typical study, macrophages represent 40-70% of the total cells, and polymorphonuclear cells 30-60% of the total cells. Inhibition of neutrophil levels relative to no compound controls is calculated based on the differential counts.
The assay has varying conditions, such as concentration, pretreat time, form of the compound (crystalline, amorphous, salts, micronised), and a wet or dry application of the compound. The data is obtained as % inhibition using a particular concentration and pretreat time.

Row | Structure (SMILES) | inhibition of neutrophilia (neutrophil influx to the lung)
1 | Cc1ccc(C(=O)NC(C)C)cc1-c1nc(NCCCN(C)C)nc2c1CNC(=O)N2c1c(F)cccc1F [Example 40, 3-(8-(2,6-difluorophenyl)-2-{[3-(dimethylamino)propyl]amino}-7-oxo-5,6,7,8-tetrahydropyrimido[4,5-d]pyrimidin-4-yl)-4-methyl-N-(1-methylethyl)benzamide] | statistically significant inhibition of neutrophilia
2 | CCc1ccc(C(=O)Nc2nccs2)cc1-c1nc(NCCN(C)C)nc2c1CNC(=O)N2c1c(F)cccc1F [Example 144, 3-(8-(2,6-difluorophenyl)-2-{[2-(dimethylamino)ethyl]amino}-7-oxo-5,6,7,8-tetrahydropyrimido[4,5-d]pyrimidin-4-yl)-4-ethyl-N-1,3-thiazol-2-ylbenzamide trifluoroacetate] | statistically significant inhibition of neutrophilia
3 | Cc1ccc(C(=O)Nc2nccs2)cc1-c1nc(NCCN(C)C)nc2c1CNC(=O)N2c1c(F)cccc1F [118(c), 3-(8-(2,6-difluorophenyl)-2-{[2-(dimethylamino)ethyl]amino}-7-oxo-5,6,7,8-tetrahydropyrimido[4,5-d]pyrimidin-4-yl)-4-methyl-N-1,3-thiazol-2-ylbenzamide] | statistically significant inhibition of neutrophilia
4 | CN(C)CCNc1nc(-c2cccc(C(=O)Nc3nccs3)c2)c2c(n1)N(c1c(F)cccc1F)C(=O)NC2 [Example 92, 3-(8-(2,6-difluorophenyl)-2-{[2-(dimethylamino)ethyl]amino}-7-oxo-5,6,7,8-tetrahydropyrimido[4,5-d]pyrimidin-4-yl)-N-1,3-thiazol-2-ylbenzamide] | statistically significant inhibition of neutrophilia
5 | Cc1ccc(NC(=O)c2ccsc2)cc1-c1nc(N2CCC(N)CC2)nc2c1CNC(=O)N2c1c(F)cccc1F [Example 11, N-{3-[2-(4-amino-1-piperidinyl)-8-(2,6-difluorophenyl)-7-oxo-5,6,7,8-tetrahydropyrimido[4,5-d]pyrimidin-4-yl]-4-methylphenyl}-3-thiophenecarboxamide] | statistically significant inhibition of neutrophilia
6 | Cc1c(F)cc(C(=O)Nc2ccccc2)cc1-c1nc(NCCN(C)C)nc2c1CNC(=O)N2c1c(F)cccc1F [Example 112, 3-(8-(2,6-difluorophenyl)-2-{[2-(dimethylamino)ethyl]amino}-7-oxo-5,6,7,8-tetrahydropyrimido[4,5-d]pyrimidin-4-yl)-5-fluoro-4-methyl-N-phenylbenzamide] | statistically significant inhibition of neutrophilia
7 | CSc1nc(-c2cc(NC(=O)c3ccc(C)c(F)c3)ccc2C)c2c(n1)N(c1c(F)cccc1F)C(=O)NC2 [23(c), N-{3-[8-(2,6-difluorophenyl)-2-(methylthio)-7-oxo-5,6,7,8-tetrahydropyrimido[4,5-d]pyrimidin-4-yl]-4-methylphenyl}-3-fluoro-4-methylbenzamide] | inactive
8 | Cc1ccc(C(=O)NC(C)C)cc1-c1nc(N2CCCN(C)CC2)nc2c1CNC(=O)N2c1c(F)cccc1F [Example 179, 3-[8-(2,6-difluorophenyl)-2-(4-methylhexahydro-1H-1,4-diazepin-1-yl)-7-oxo-6,7,8-tetrahydropyrimido[4,5-d]pyrimidin-4-yl]-4-methyl-N-(1-methylethyl)benzamide trifluoroacetate] | statistically nonsignificant inhibition of neutrophilia
9 | Cc1ccc(C(=O)Nc2ccc(F)cc2)cc1-c1nc(NCCCN(C)C)nc2c1CNC(=O)N2c1c(F)cccc1F [Example 42, 3-(8-(2,6-difluorophenyl)-2-{[3-(dimethylamino)propyl]amino}-7-oxo-5,6,7,8-tetrahydropyrimido[4,5-d]pyrimidin-4-yl)-N-(4-fluorophenyl)-4-methylbenzamide] | statistically significant inhibition of neutrophilia
10 | CNC(=O)c1ccc(C)c(-c2nc(NCCCN(C)C)nc3c2CNC(=O)N3c2c(F)cccc2F)c1 [Example 166, 3-(8-(2,6-difluorophenyl)-2-{[3-(dimethylamino)propyl]amino}-7-oxo-5,6,7,8-tetrahydropyrimido[4,5-d]pyrimidin-4-yl)-N,4-dimethylbenzamide] | statistically nonsignificant inhibition of neutrophilia
11 | Cc1ccc(C(=O)Nc2ccc(F)cc2)cc1-c1nc(N2CCC(N3CCCCC3)CC2)nc2c1CNC(=O)N2c1c(F)cccc1F [87(b), 3-[2-(1,4′-bipiperidin-1′-yl)-8-(2,6-difluorophenyl)-7-oxo-5,6,7,8-tetrahydropyrimido[4,5-d]pyrimidin-4-yl]-N-(4-fluorophenyl)-4-methylbenzamide] | statistically nonsignificant inhibition of neutrophilia
12 | CCCNC(=O)c1ccc(C)c(-c2nc(NCCCN(CC)CC)nc3c2CNC(=O)N3c2c(F)cccc2F)c1 [29(c), 3-[2-{[3-(diethylamino)propyl]amino}-8-(2,6-difluorophenyl)-7-oxo-5,6,7,8-tetrahydropyrimido[4,5-d]pyrimidin-4-yl]-4-methyl-N-propylbenzamide] | statistically significant inhibition of neutrophilia
13 | Cc1ccc(C(=O)NC(C)C)cc1-c1nc(N(C)CCCN(C)C)nc2c1CNC(=O)N2c1c(F)cccc1F [34(d), 3-{8-(2,6-difluorophenyl)-2-[[3-(dimethylamino)propyl](methyl)amino]-7-oxo-5,6,7,8-tetrahydropyrimido[4,5-d]pyrimidin-4-yl}-4-methyl-N-(1-methylethyl)benzamide] | statistically nonsignificant inhibition of neutrophilia
14 | Cc1ccc(C(=O)Nc2ccc(F)cc2)cc1-c1nc(N(C)CCN(C)C)nc2c1CNC(=O)N2c1c(F)cccc1F [Example 32, 3-{8-(2,6-difluorophenyl)-2-[[2-(dimethylamino)ethyl](methyl)amino]-7-oxo-5,6,7,8-tetrahydropyrimido[4,5-d]pyrimidin-4-yl}-N-(4-fluorophenyl)-4-methylbenzamide] | statistically nonsignificant inhibition of neutrophilia
15 | CCN(CC)CCCNc1nc(-c2cc(C(=O)Nc3nccs3)ccc2C)c2c(n1)N(c1c(F)cccc1F)C(=O)NC2 [Example 120, 3-[2-{[3-(diethylamino)propyl]amino}-8-(2,6-difluorophenyl)-7-oxo-5,6,7,8-tetrahydropyrimido[4,5-d]pyrimidin-4-yl]-4-methyl-N-1,3-thiazol-2-ylbenzamide] | statistically significant inhibition of neutrophilia
16 | Cc1ccc(C(=O)Nc2ccc(F)cc2)cc1-c1nc(NC2CCN(C)CC2)nc2c1CNC(=O)N2c1c(F)cccc1F [Example 39, 3-{8-(2,6-difluorophenyl)-2-[(1-methyl-4-piperidinyl)amino]-7-oxo-5,6,7,8-tetrahydropyrimido[4,5-d]pyrimidin-4-yl}-N-(4-fluorophenyl)-4-methylbenzamide] | statistically nonsignificant inhibition of neutrophilia
17 | Cc1ccc(C(=O)Nc2nccs2)cc1-c1nc(NCCCN(C)C)nc2c1CNC(=O)N2c1c(F)cccc1F [Example 119, 3-(8-(2,6-difluorophenyl)-2-{[3-(dimethylamino)propyl]amino}-7-oxo-5,6,7,8-tetrahydropyrimido[4,5-d]pyrimidin-4-yl)-4-methyl-N-1,3-thiazol-2-ylbenzamide] | statistically significant inhibition of neutrophilia
18 | CCCNC(=O)c1ccc(C)c(-c2nc(N(C)CCCN(C)C)nc3c2CNC(=O)N3c2c(F)cccc2F)c1 [Example 53, 3-{8-(2,6-difluorophenyl)-2-[[3-(dimethylamino)propyl](methyl)amino]-7-oxo-5,6,7,8-tetrahydropyrimido[4,5-d]pyrimidin-4-yl}-4-methyl-N-propylbenzamide] | statistically nonsignificant inhibition of neutrophilia
19 | CCN(CC)CCCNc1nc(-c2cc(C(=O)NC)ccc2C)c2c(n1)N(c1c(F)cccc1F)C(=O)NC2 [Example 172, 3-[2-{[3-(diethylamino)propyl]amino}-8-(2,6-difluorophenyl)-7-oxo-5,6,7,8-tetrahydropyrimido[4,5-d]pyrimidin-4-yl]-N,4-dimethylbenzamide] | statistically nonsignificant inhibition of neutrophilia
20 | Cc1ccc(C(=O)Nc2ccc(F)cc2)cc1-c1nc(NCCN(C)C)nc2c1CNC(=O)N2c1c(F)cccc1F [8(c), 3-(8-(2,6-difluorophenyl)-2-{[2-(dimethylamino)ethyl]amino}-7-oxo-5,6,7,8-tetrahydropyrimido[4,5-d]pyrimidin-4-yl)-N-(4-fluorophenyl)-4-methylbenzamide] | statistically significant inhibition of neutrophilia

Source: patent publication US7674789B2, “Compounds” (Glaxo Group Limited, priority 2005, dated 2010)
